Experimental data reported in the supplement of paper PMC10307832.

Columns and labels:
Test in all cases: relative viability (nuclei count vs DMSO), 5 days (fraction); higher = more cells survive
A-427 = tested on: A-427
In short: (§1)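 Relative viability was taken as the ratio of nuclei in treated wells to nuclei in vehicle wells. Lung cancer cell lines in 1536-well plates received compounds by pin tool one day after seeding, either one drug alone or a fixed anchor-drug dose plus five library-drug doses (not always all listed) in √10 steps. Nuclei were counted on 4× images after 5 days of treatment, and values are medians of duplicate plates.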

CAL-12T = tested on: CAL-12T
In short: as §1

COR-L 105 = tested on: COR-L 105
In short: as §1

EMC-BAC-2 = tested on: EMC-BAC-2
In short: as §1

HARA = tested on: HARA
In short: as §1

HCC-366 = tested on: HCC-366
In short: as §1

HCC-827 = tested on: HCC-827
In short: as §1

HOP-62 = tested on: HOP-62
In short: as §1

LCLC-103H = tested on: LCLC-103H
In short: as §1

NCI-H1395 = tested on: NCI-H1395
In short: as §1

NCI-H1437 = tested on: NCI-H1437
In short: as §1

NCI-H1755 = tested on: NCI-H1755
In short: as §1

NCI-H1792 = tested on: NCI-H1792
In short: as §1

NCI-H1915 = tested on: NCI-H1915
In short: as §1

NCI-H2009 = tested on: NCI-H2009
In short: as §1

NCI-H2228 = tested on: NCI-H2228
In short: as §1

NCI-H23 = tested on: NCI-H23
In short: as §1

NCI-H460 = tested on: NCI-H460
In short: as §1

NCI-H522 = tested on: NCI-H522
In short: as §1

NCI-H727 = tested on: NCI-H727
In short: as §1

SK-LU-1 = tested on: SK-LU-1
In short: as §1

SW 1573 = tested on: SW 1573
In short: as §1

CC(=O)O[C@@]12CO[C@@H]1C[C@H](O)[C@@]1(C)C(=O)[C@H](O)C3=C(C)[C@@H](OC(=O)[C@H](O)[C@@H](NC(=O)OC(C)(C)C)c4ccccc4)C[C@@](O)([C@@H](OC(=O)c4ccccc4)[C@H]21)C3(C)C [Docetaxel] + COc1cccc2cc(-c3nc([C@H]4CC[C@H](C(=O)O)CC4)n4ncnc(N)c34)[nH]c12 [OSI-027] (partner 0.5 µM)
relative viability (A-427; first compound 0.0002 µM): 0.465
relative viability (A-427; first compound 0.000632 µM): 0.435
relative viability (A-427; first compound 0.002 µM): 0.224
relative viability (A-427; first compound 0.006325 µM): 0.235
relative viability (A-427; first compound 0.02 µM): 0.155
relative viability (CAL-12T; first compound 0.0002 µM): 0.44
relative viability (CAL-12T; first compound 0.000632 µM): 0.272
relative viability (CAL-12T; first compound 0.002 µM): 0.186
relative viability (CAL-12T; first compound 0.02 µM): 0.111
relative viability (COR-L 105; first compound 0.0002 µM): 0.569
relative viability (COR-L 105; first compound 0.000632 µM): 0.654
relative viability (COR-L 105; first compound 0.002 µM): 0.408
relative viability (COR-L 105; first compound 0.006325 µM): 0.277
relative viability (COR-L 105; first compound 0.02 µM): 0.289
relative viability (EMC-BAC-2; first compound 0.0002 µM): 0.424
relative viability (EMC-BAC-2; first compound 0.000632 µM): 0.327
relative viability (EMC-BAC-2; first compound 0.002 µM): 0.257
relative viability (EMC-BAC-2; first compound 0.006325 µM): 0.25
relative viability (EMC-BAC-2; first compound 0.02 µM): 0.172
relative viability (HARA; first compound 0.0002 µM): 0.341
relative viability (HARA; first compound 0.000632 µM): 0.159
relative viability (HARA; first compound 0.002 µM): 0.0997
relative viability (HARA; first compound 0.006325 µM): 0.106
relative viability (HARA; first compound 0.02 µM): 0.0539
relative viability (HCC-366; first compound 0.0002 µM): 0.917
relative viability (HCC-366; first compound 0.000632 µM): 0.553
relative viability (HCC-366; first compound 0.002 µM): 0.0467
relative viability (HCC-366; first compound 0.006325 µM): 0.0385
relative viability (HCC-366; first compound 0.02 µM): 0.0274
relative viability (HCC-827; first compound 0.0002 µM): 0.783
relative viability (HCC-827; first compound 0.000632 µM): 0.848
relative viability (HCC-827; first compound 0.002 µM): 0.52
relative viability (HCC-827; first compound 0.006325 µM): 0.226
relative viability (HCC-827; first compound 0.02 µM): 0.169
relative viability (HOP-62; first compound 0.0002 µM): 0.835
relative viability (HOP-62; first compound 0.000632 µM): 0.631
relative viability (HOP-62; first compound 0.002 µM): 0.369
relative viability (LCLC-103H; first compound 0.0002 µM): 0.394
relative viability (LCLC-103H; first compound 0.000632 µM): 0.528
relative viability (LCLC-103H; first compound 0.002 µM): 0.343
relative viability (LCLC-103H; first compound 0.006325 µM): 0.414
relative viability (LCLC-103H; first compound 0.02 µM): 0.264
relative viability (NCI-H1395; first compound 0.0002 µM): 0.609
relative viability (NCI-H1395; first compound 0.000632 µM): 0.657
relative viability (NCI-H1395; first compound 0.002 µM): 0.538
relative viability (NCI-H1395; first compound 0.006325 µM): 0.373
relative viability (NCI-H1395; first compound 0.02 µM): 0.272
relative viability (NCI-H1437; first compound 0.0002 µM): 0.767
relative viability (NCI-H1437; first compound 0.000632 µM): 0.861
relative viability (NCI-H1437; first compound 0.002 µM): 0.311
relative viability (NCI-H1437; first compound 0.006325 µM): 0.162
relative viability (NCI-H1437; first compound 0.02 µM): 0.114
relative viability (NCI-H1755; first compound 0.0002 µM): 0.677
relative viability (NCI-H1755; first compound 0.000632 µM): 0.554
relative viability (NCI-H1755; first compound 0.002 µM): 0.402
relative viability (NCI-H1755; first compound 0.006325 µM): 0.39
relative viability (NCI-H1755; first compound 0.02 µM): 0.353
relative viability (NCI-H1792; first compound 0.0002 µM): 0.673
relative viability (NCI-H1792; first compound 0.000632 µM): 0.699
relative viability (NCI-H1792; first compound 0.002 µM): 0.545
relative viability (NCI-H1792; first compound 0.006325 µM): 0.409
relative viability (NCI-H1792; first compound 0.02 µM): 0.186
relative viability (NCI-H1915; first compound 0.0002 µM): 0.603
relative viability (NCI-H1915; first compound 0.000632 µM): 0.505
relative viability (NCI-H1915; first compound 0.006325 µM): 0.224
relative viability (NCI-H1915; first compound 0.02 µM): 0.14
relative viability (NCI-H2009; first compound 0.0002 µM): 0.618
relative viability (NCI-H2009; first compound 0.000632 µM): 0.66
relative viability (NCI-H2009; first compound 0.002 µM): 0.491
relative viability (NCI-H2009; first compound 0.006325 µM): 0.231
relative viability (NCI-H2009; first compound 0.02 µM): 0.134
relative viability (NCI-H2228; first compound 0.0002 µM): 0.456
relative viability (NCI-H2228; first compound 0.000632 µM): 0.147
relative viability (NCI-H2228; first compound 0.002 µM): 0.159
relative viability (NCI-H2228; first compound 0.006325 µM): 0.161
relative viability (NCI-H2228; first compound 0.02 µM): 0.112
relative viability (NCI-H23; first compound 0.0002 µM): 0.804
relative viability (NCI-H23; first compound 0.000632 µM): 0.587
relative viability (NCI-H23; first compound 0.002 µM): 0.238
relative viability (NCI-H23; first compound 0.006325 µM): 0.168
relative viability (NCI-H23; first compound 0.02 µM): 0.107
relative viability (NCI-H460; first compound 0.0002 µM): 0.645
relative viability (NCI-H460; first compound 0.000632 µM): 0.238
relative viability (NCI-H460; first compound 0.002 µM): 0.0745
relative viability (NCI-H460; first compound 0.006325 µM): 0.0177
relative viability (NCI-H460; first compound 0.02 µM): 0.0139
relative viability (NCI-H522; first compound 0.0002 µM): 0.666
relative viability (NCI-H522; first compound 0.000632 µM): 0.657
relative viability (NCI-H522; first compound 0.002 µM): 0.541
relative viability (NCI-H522; first compound 0.006325 µM): 0.496
relative viability (NCI-H522; first compound 0.02 µM): 0.426
relative viability (NCI-H727; first compound 0.0002 µM): 0.804
relative viability (NCI-H727; first compound 0.000632 µM): 0.615
relative viability (NCI-H727; first compound 0.002 µM): 0.415
relative viability (NCI-H727; first compound 0.006325 µM): 0.544
relative viability (NCI-H727; first compound 0.02 µM): 0.361
relative viability (SK-LU-1; first compound 0.0002 µM): 0.353
relative viability (SK-LU-1; first compound 0.000632 µM): 0.26
relative viability (SK-LU-1; first compound 0.002 µM): 0.228
relative viability (SK-LU-1; first compound 0.006325 µM): 0.197
relative viability (SK-LU-1; first compound 0.02 µM): 0.144
relative viability (SW 1573; first compound 0.0002 µM): 0.677
relative viability (SW 1573; first compound 0.000632 µM): 0.326
relative viability (SW 1573; first compound 0.002 µM): 0.199
relative viability (SW 1573; first compound 0.02 µM): 0.124
